Some test systems named below: 786-0; ACHN; CAKI-1; COLO 205; DLD-1; DU-145; EKVX; Hs-578T; KM12; LOX IMVI; Malme-3M; NCI-H226; NCI-H23; OVCAR-5; RPMI-8226; SF-539; SK-MEL-2; SNB-75; SNB-78; UACC-257.
Experiment in all cases: inhibition of tumour cell growth, NCI panel, 48 h

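Protocol summary: plate cells (96-well), add compound at 5 concentrations, incubate 48 h, interpolate endpoints linearly. GI50: concentration for 50% inhibition of growth.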 Active and inactive are the calls of the source. No stated cut-off is given here; in the data, active = GI50 up to about 1.1 µM and inactive = higher.

Take `CC(C)/C=C1\CCC(CN(C)C)C1=O` (stereo not drawn): the GI50 with 786-0 is 0.632 µM (active); in the assay on ACHN, 5.82 µM (inactive); in the assay with CAKI-1, 1.32 µM (inactive); in the assay with COLO 205 it was 0.586 µM (active); with DLD-1, 1.67 µM (inactive); in the assay with DU-145, 1.81 µM (inactive). Moreover, the GI50 in the assay with EKVX is 7.1 µM (inactive); with Hs-578T, 1.86 µM (inactive); in the assay with KM12, 1.22 µM (inactive); with LOX IMVI, 4.99 µM (inactive); in the assay on Malme-3M it was 1.04 µM (active); in the assay with NCI-H226, 26.9 µM (inactive). In addition, the GI50 in the assay on NCI-H23 is 5.56 µM (inactive); with OVCAR-5 it was 8.41 µM (inactive); in the assay on RPMI-8226, 0.13 µM (active); with SF-539, 7.29 µM (inactive); in the assay on SK-MEL-2 it was 7.05 µM (inactive); in the assay with SNB-75, 3.48 µM (inactive). Further, the GI50 in the assay with SNB-78 is 4.51 µM (inactive); with UACC-257 it was 4.63 µM (inactive).
As to `O=c1[nH]c(=O)n(C2CC(O)C(CO)O2)cc1C#Cc1ccc(F)cc1` (stereo not drawn), the GI50 with 786-0, in the assay on ACHN, with CAKI-1, with COLO 205, in the assay on DLD-1 and in the assay with EKVX was > 100 µM (inactive) throughout. Also, the GI50 in the assay with KM12, with LOX IMVI, in the assay on Malme-3M, with NCI-H226, in the assay on NCI-H23 and in the assay with OVCAR-5 was > 100 µM (inactive) in each case. Besides, the GI50 in the assay with RPMI-8226, in the assay with SF-539, in the assay on SK-MEL-2, with SNB-75, in the assay with SNB-78 and in the assay on UACC-257 was > 100 µM (inactive) in each case.
